Patent US9408856B2, “Topical steroidal formulations” (Temple University—Of The Commonwealth System of Higher …, priority 2008, dated 2016)
“Also recorded” adds a separate entry of the source.

Columns and labels:
[1] = system: dexamethasone-induced thymic and splenic atrophy; experiment: Dexamethasone-induced thymic and splenic atrophy in mice; type: in vivo, CD-1 mice; conditions: for protection against DEX-induced thymic and splenic atrophy: CD-1 mice
Experimental: Administration of dehydroepiandrosterone (DHEA, 60 mg/kg, s.c.) for three days partially reverse thymic and splenic atrophy induced by a single injection of dexamethasone (1.6 mg/mouse). In this experiment, the efficacy of either 10 mg/kg or 20 mg/kg DHEA administered s.c. versus the effect of 10 mg/kg or 20 mg/kg fluasterone was investigated.
5% Cremophor (polyethoxylated castor oil; Sigma Chemicals)-95% saline vehicle was prepared using 95 mL of sterile 0.9% NaCl (filtered through sterile 0.22 micron filter) and 5 mL of Cremophor. The Cremophor was dissolved by swirling for approximately 5 minutes.
Dexamethasone solutions were prepared by dissolving dexamethasone (Sigma Chemicals) in absolute ethanol. For example, 71.9 mg of dexamethasone was dissolved in 2.9 mL of absolute ethanol. In order to prevent precipitation, the solution was kept on a hotplate between injections.
For the 10 mg/kg suspension, 25.7 mg of DHEA was weighed out, transferred to a glass scintillation vial, and 10.3 mL of the Cremophor-saline vehicle was added. The DHEA suspension was homogenized using a Tissumizer at 80% power for 30 sec. The Tissumizer was rinsed with 70% ethanol prior to homogenization. After the 10 mg/kg DHEA suspension was homogenized the probe was rinsed 2× with 50 mL of absolute ethanol, then with 50 mL of 70% ethanol, and then dried with sterile gauze. For the 20 mg/kg DHEA suspension, 50.9 mg DHEA was suspended in 10.2 mL of Cremophor-saline vehicle.
19.4 mg of fluasterone was weighed out and transferred to a glass scintillation vial. 7.8 mL of Cremophor-saline vehicle was added to the vial and the contents of the vial were homogenized with a Tissumizer as described previously. Prior to preparing the 20 mg/kg fluasterone, the probe was rinsed 2× with 50 mL of absolute ethanol and 1× with 50 mL of 70% ethanol. For the 20 mg/kg suspension, 47.0 mg was weighed out and transferred to a glass scintillation vial. 9.4 mL of Cremophor-saline vehicle was added to the vial and the contents of the vial were homogenized with a Tissumizer as described above.
Female CD-1 mice, 43-45 days old, were obtained from Charles River Laboratories. The mice were housed 5 per cage in plastic shoebox cages with ad libitum access to Purina chow 5015 and water in the Pharmacy CAF with 12 hr of alternating light and darkness.
Prior to the experiment the mice were weighed, separated into 6 groups containing 5 mice each and treated as follows:
Mice were treated s.c. with 0.1 mL of 5% Cremophor-95% saline for three days. On the third day, the mice were also treated s.c. with 1.6 mg of dexamethasone dissolved in 0.06 mL of absolute. ethanol.
Mice were treated s.c. with 0.25 mg of DHEA suspended in 0.1 mL of 5% Cremophor-95% saline for three days. On the third day, the mice were also treated s.c. with 1.6 mg of dexamethasone dissolved in 0.06 mL of absolute ethanol.
Mice were treated s.c. with 0.5 mg of DHEA suspended in 0.1 mL of 5% Cremophor-95% saline for three days. On the third day, the mice were also treated s.c. with 1.6 mg of dexamethasone dissolved in 0.06 mL of absolute ethanol.
Mice were treated s.c. with 0.25 mg of fluasterone suspended in 0.1 mL of 5% Cremophor-95% saline for three days. On the third day, the mice were also treated s.c. with 1.6 mg of dexamethasone dissolved in 0.06 mL of absolute ethanol.
Mice were treated s.c. with 0.5 mg of fluasterone suspended in 0.1 mL of 5% Cremophor-95% saline for three days. On the third day, the mice were also treated s.c. with 1.6 mg of dexamethasone dissolved in 0.06 mL of absolute ethanol.
All s.c. injections were made in the nape. All mice were lightly anesthetized while the s.c. injections were done.
Twenty-four hours after dexamethasone treatment, the mice were euthanized by an overdose of isoflurane. The spleen and thymus were removed, cleaned of any adventitia, rinsed, blotted on filter paper, and weighed. […]

[2] = system: dexamethasone-induced thymic and splenic atrophy; conditions: C3H/HeN mice; 60 mg/kg s.c. 3 days; single DEX dose 1.6 mg; Blauer et al. 1991; cited from earlier work
[3] = Table 12, 10 mg/kg s.c. 3 days + dexamethasone 1.6 mg s.c. on day 3, 24 h after dexamethasone
[4] = Table 12, 20 mg/kg s.c. 3 days + dexamethasone 1.6 mg s.c. on day 3, 24 h after dexamethasone
[5] = Table 14, micronized steroid 20 mg/kg + dexamethasone
[6] = Table 14, micronized steroid 60 mg/kg + dexamethasone

In the case of `C[C@]12CC[C@H](O)CC1=CC[C@@H]1[C@@H]2CC[C@]2(C)C(=O)CC[C@@H]12` [DHEA, dehydroepiandrosterone, reference compound], the “protection against DEX-induced thymic and splenic atrophy” value (from here on “protection”) ([1]; 10 mg/kg) was “inactive”, the “protection” value ([1]; 20 mg/kg) was “no apparent protection; also recorded: inactive” and the “protection” value ([1]; 60 mg/kg) was “significantly protected”. For the same molecule, the “Body Weight” value [1, 3] was 23.7 ± 1.0, the Spleen wt [1, 3] was 46.4 ± 3.7 and the “Spleen wt/BW” value [1, 3] was 2.0 ± 0.2. The Thymus wt [1, 3] was 31.7 ± 2.6, the “Thymus wt/BW” value [1, 3] was 1.3 ± 0.2 and the “Body Weight” value [1, 4] was 24.5 ± 2.1. The Spleen wt [1, 4] was 51.4 ± 2.2, the “Spleen wt/BW” value [1, 4] was 2.1 ± 0.2 and the Thymus wt [1, 4] was 36.6 ± 5.2. For the same molecule, the “Thymus wt/BW” value [1, 4] was 1.5 ± 0.2, the “Body Weight” value [1, 5] was 27.4 ± 4.0 and the Spleen wt [1, 5] was 56.8 ± 8.1. The “Spleen wt/BW” value [1, 5] was 2.1 ± 0.1, the Thymus wt [1, 5] was 39.3 ± 4.1 and the “Thymus wt/BW” value [1, 5] was 1.4 ± 0.1. For the same molecule, the “Body Weight” value [1, 6] was 27.0 ± 3.1, the Spleen wt [1, 6] was 79.9 ± 16.0 and the “Spleen wt/BW” value [1, 6] was 3.0 ± 0.4. For the same molecule, the Thymus wt [1, 6] was 63.2 ± 7.8, the “Thymus wt/BW” value [1, 6] was 2.3 ± 0.2 and the “Approximate Potency Compared to Fluasterone in Protecting Against DEX-induced Thymic and Splenic Involution” value ([1]; fluasterone = 1, mice) was “about ⅙”. The “effect on DEX-induced thymic and splenic atrophy” value [2] was “significantly reduces”.
